Data taken from US9603813B2, “Visual performance and/or macular pigmentation” (Howard Foundation Holdings Limited, priority 2011, dated 2017).

What was measured:
[1] = Plasma carotenoids in one person consuming one egg per day (HPLC); details: human, in vivo
Experimental: The objective of this study was to feed hens a mixture of L, MZ and Z to determine the total amount of MZ in the yolk. In addition 24 eggs collected at the end of the experiment were consumed by one subject, one egg/day and the blood MZ composition determined.
Blood (10 ml) from a human subject was collected in lithium heparin tubes at baseline, day 12 and day 24 after consumption of one egg per day and centrifuged to provide plasma subsequently stored at −40 C. Plasma, 0.25 ml was mixed with 0.2 ml sodium dodecyl sulphate, 0.4 ml ethyl acetate (internal standard). Hexane containing BHT (1.0 ml) was added and the mixture extracted vigorously for 4 minutes, centrifuged for 10 mins and 0.7 ml of the upper hexane layer removed and evaporated to dryness.
The residue was made up to 0.1 ml with mobile phase (see HPLC procedure below) and 0.05 ml was injected onto the column.

[2] = system: Bovan Goldline hens; assay: Carotenoid contents of egg yolks from hens fed mixed carotenoids (HPLC)
Experimental: Eight Bovan Goldline hens were obtained at approximately 18 weeks of age.
When the hens were producing at least 8 eggs per day in total, the hens were isolated and fed only a commercial meal. […] The premix provided 250 mg MZ/kg feed with proportions of L 50, MZ 30, Z 20.
The yolk carotenoids were measured in mixtures prepared from all eggs collected at baseline, three and six weeks.
Yolks were individually weighed and mixed with phosphate-buffered saline and made up to 50 ml. Two ml of each suspension was mixed in a separate universal tube for each of the three batches separately and stored at −40 C.
The egg yolk suspension (0.1 ml) was mixed with 0.15 ml aqueous KOH (25 gl100 mlwater), 0.15 ml absolute ethyl alcohol and 0.1 ml echinenone (internal standard, 0.4 mg/500 ml ethyl alcohol) in a glass extraction tube and incubated at 45 C for 45 minutes.
Solutions were then cooled and mixed vigorously with 1.5 ml hexane (containing BHT500 mg/l) and centrifuged to separate the hexane and aqueous layers. One ml of the upper hexane layer was transferred to an evaporating tube and the residue was re-extracted with 1.5 ml hexane. After centrifuging, 1.5 ml of the upper layer was removed and the extracts combined and evaporated to dryness under nitrogen at 40 C. The residue was made up to 0.15 ml with mobile phase (see Ultracarb HPLC below) and 0.1 ml was injected onto a Ultra Carb Column for HLPC analysis.
Separation and quantitation of the MZ was achieved using a two column procedure.
Ultracarb procedure: Extracts prepared as described above were reconstituted in a mobile phase comprising acetonitrile:methanol (85:15 containing 0.1% triethylamine). Using the same solvent mixture at 1.5 ml/min, extracts were chromatographed isocratically using a 3 micro m Ultracarb ODS column (250×4.6 mm, Phenomenex, UK) and detected using a photodiode-array detector (model 2996, Waters Ltd) to quantify L and Z+MZ at 450 nm. Eluent that coincided with the emergence of MZ+Z was collected from the waste line and evaporated to dryness under nitrogen.
Chiral chromoatography: The Z+MZ extract was then reconstituted in 0.1 ml of hexane:isopropanol (90:10) and 50 uL was chromatographed on a 10 micro m Chiralpak® AD column (250×4.6 mm; Chiral Technologies Europe, 67404 Illkirch Cedex, France) to determine the proportion of MZ and Z isomers using gradient elution at 0.8 ml/min starting with 90% hexane and 10% isopropyl alcohol and increasing to 95% hexane in a linear gradient over 30 minutes.

[3] = feeding 250 ppm of the carotenoid mixture for 3 weeks

Row | Structure (SMILES) | concentration at 12 day [1] [nM] | concentration at 24 day [1] [nM] | contents of plasma in one person consuming one egg per day [1] [micro moles per litre] | contents of egg yolks from chicken fed 250 mg/kg mixed carotenoids ([2]; Weeks 0 (baseline)) [micro grams per yolk] | contents of egg yolks from chicken fed 250 mg/kg mixed carotenoids ([2]; Weeks 3) [micro grams per yolk] | contents of egg yolks from chicken fed 250 mg/kg mixed carotenoids ([2]; Weeks 6) [micro grams per yolk] | share of the yolk carotenoid content [2, 3] | content of egg yolks [2, 3] [mg MZ/yolk]
1 | CC1=C[C@H](O)CC(C)(C)[C@H]1/C=C/C(C)=C/C=C/C(C)=C/C=C/C=C(C)/C=C/C=C(C)/C=C/C1=C(C)C[C@@H](O)CC1(C)C [L, lutein] | 1200 | 1060 | 0.55 | 563 | 2100 | 2260 | circa 76% | –
2 | CC1=C(/C=C/C(C)=C/C=C/C(C)=C/C=C/C=C(C)/C=C/C=C(C)/C=C/C2=C(C)C[C@H](O)CC2(C)C)C(C)(C)C[C@H](O)C1 [MZ, (trans, 3R, 3′S meso)-zeaxanthin] | – | – | – | 0 | 315 | 272 | 11% | 2.78
3 | CC1=C(/C=C/C(C)=C/C=C/C(C)=C/C=C/C=C(C)/C=C/C=C(C)/C=C/C2=C(C)C[C@@H](O)CC2(C)C)C(C)(C)C[C@H](O)C1 [Z, zeaxanthin] | – | – | – | 278 | 366 | 328 | 13% | –
